Experimental data as given in patent US20200283498A1, “T CELL RECEPTOR FUSIONS AND CONJUGATES AND METHODS OF USE THEREOF” (Altor Bioscience LLC, priority 2008, published 2020).

Experiments:
[1] = test system: p53 (aa 264-272) peptide-loaded T2 cells and CTLL-2 cells; experiment: Cell-cell conjugation assay (flow cytometry); format: cell-based, human T2 cells, mouse CTLL-2 cells
Procedure: FIG. 20A, FIG. 20B, FIG. 20C, and FIG. 20D depict in vitro conjugation of IL-2 receptor-bearing immune cells with antigen presenting target cells mediated by scTCR/IL-2 fusion protein. T2 cells were loaded with either p53 (aa 264-272) or p53 (aa 149-157) (control) peptides and then labeled with HE. CTLL-2 cells were labeled with calcein AM. Labeled cells were mixed and incubated in the presence or absence of 264scTCR/IL-2 fusion protein and the samples were analyzed by flow cytometry. Assay conditions including loading peptide used and presence or absence of fusion protein are indicated beneath each histogram. Single stained regions are marked 1 and 3 and the double stained cell poplulation is marked 2.
In this experiment, T2 cells pulsed with either the 149 or 264 peptide. CTLL-2 cells were hydrodiethidium (HE) labeled and incubated for 20 minutes at RT with an equal number of calcein-AM labeled T2 cells pulsed with either 50 μg of 149 or 264 peptide. […] In contrast, conjugate formation was not observed with the mixture that included the 149 peptide pulsed T2 cells (B; 0.88%). Cell samples were washed one time before analysis on the flow cytometer.
Samples were analyzed by flow cytometry. […] Thus, the scTCR/IL-2 fusion protein could be useful in a therapeutic approach for bringing together immune effector cells and tumor cells and stimulating immune cell-mediated activity against the tumor.

[2] = test system: YAC-1 target cells; experiment: Lytic activity of stimulated nude mouse splenocytes (calcein release); format: cell-based; settings: four days in equivalent molar amounts; YAC-1 targets
[3] = test system: immune cells (splenocytes, lymph nodes, bone marrow); experiment: In vivo activation of immune cells in A375 tumor-bearing nude mice
From the text: FIG. 19A and FIG. 19B depict in vivo activation of immune cells in mice following scTCR/IL-2 treatment. […] Splenocytes were isolated at the indicated times and analyzed by flow cytometry for expression of CD25, CD122 or pan-NK markers. The plots indicate the percentage of CD25, CD122 or pan-NK-positive staining (dark line) compared with splenocyte staining with an isotype control mAb (red line).
The effect of the scTCR/IL-2 fusion proteins on immune cells was also investigated in vivo. […] Changes in IL-2R subunit expression were also assessed in immune cells isolated from the spleens, lymph nodes and bone marrow of 264scTCR/IL-2- or MART-1scTCR/IL-2-treated mice.

[4] = test system: p53+/HLA-A2.1+ MDA-MB-231 tumor cells; experiment: MDA-MB-231 xenograft tumor growth in nude mice; format: in vivo; settings: compared to PBS; 9 doses i.v.
[5] = test system: p53+/HLA-A2.1+ PANC1 tumor cells; experiment: PANC1 xenograft tumor growth in nude mice; format: in vivo; settings: 9 doses i.v.
Procedure: (§1) The tumor lines used in this study were MBA-MD-231 (p53+/HLA-A2.1+), PANC1 (p53+/HLA-A2.1+), AsPC1(p53-/HLA-A2.1-) and HT29 (p53+/HLA-A2.1-). […] J. Immunol. 176:3223. Primary tumors derived from these cells were established in nude mice following subcutaneous injection. Mice were then treated as previously described with 264scTCR/IL-2, rhIL-2 or PBS and tumor volumes were measured.

[6] = test system: p53-/HLA-A2.1- AsPC1 tumor cells; experiment: AsPC1 xenograft tumor growth in nude mice; format: in vivo; settings: 9 doses i.v.
Procedure: as §1

[7] = test system: HT29 (p53+/HLA-A2.1-) tumors; experiment: HT29 xenograft tumor growth in nude mice; format: in vivo; settings: not shown
Procedure: as §1

[8] = test system: CD45R+ cells in tumors; experiment: Immune cell infiltration into tumors (CD45R immunohistochemistry); format: in vivo, nude mice
[9] = test system: A375 tumors; experiment: Tumor infiltration of adoptively transferred splenocytes pre-coated with scTCR/IL-2; format: in vivo, nude mice; settings: 24 hrs after transfer of pre-coated splenocytes
Procedure: FIG. 28 depicts targeted tumor infiltration of adoptively transferred splenocytes pre-coated with scTCR/IL-2. […] Boxes, interquartile range of distribution (25th-75th percentile); line within box, median; whisker, 5th-[…]. *, P<0.0001; **, P<0.0001. At least three tumors per group and 10 fields per tumor were analyzed.
The activated splenocytes were isolated and incubated with the respective scTCR/IL-2 fusion proteins in vitro to coat the surface of the cells prior to transfer into A375 tumor bearing nude mouse recipients. Tumors were then isolated 24 hrs later and levels of CD45R+NK cells were assessed.

[10] = test system: human A375 cell line tumors; experiment: A375 primary tumor growth model in nude mice
[11] = test system: human NSCLC A549-A2 tumor cells; experiment: Adoptive transfer of preincubated NK cells in A549-A2 experimental metastasis model; format: in vivo, athymic nude mice; settings: CTX 200 mg/kg ip days 14, 21; NK cells preincubated with the protein iv days 16, 22 (CTX group: no NK cells)

Q: “264scTCR/IL-2: soluble three domain single-chain TCR specific to human p53 (aa 264-272)/HLA-A2.1 linked to human IL-2 via a peptide linker” was tested. Which “conjugated (double stained) cells, share of total population” value (from here on “conjugated (double stained) cells, share”) ([1]; 149 control peptide-loaded T2 cells + CTLL-2 cells, fusion protein present (or fusion protein absent)) did it give?
A: approximately 0.9%

Q: What about the “conjugated (double stained) cells, share” value ([1]; 149 control peptide-loaded T2 cells + CTLL-2 cells, fusion protein present (or fusion protein absent), listed as 264 scTCR-IL-2) of the same molecule?
A: 0.88%

Q: What about the “conjugated (double stained) cells, share” value ([1]; 264 peptide-loaded T2 cells + CTLL-2 cells, fusion protein present (1 μg)) of the same molecule?
A: 3.25%

Q: And the “lytic activity of stimulated mouse splenocytes” value [2]?
A: Equivalent levels of lytic activity

Q: What about the NK cells ([3]; repeated administration) of the same molecule?
A: treatment-dependent increase in NK cells

Q: And the “lymph nodes and spleens” value ([3]; repeated daily i.v. 32 μg/dose)?
A: enlargement of lymph nodes and spleens

Q: And the “serum IFN-γ levels” value ([3]; repeated daily i.v. 32 μg/dose)?
A: increase in serum IFN-γ levels

Q: And the “expression of CD122 and CD25 in cells from lymph nodes and bone marrow” value ([3]; repeated daily treatment)?
A: Elevated expression

Q: What about the “Splenocytes expressing IL-2Rα (CD25) or IL-2≈ (CD122)” value ([3]; repeated daily treatments, peak one day after fourth treatment) of the same molecule?
A: increased approximately three-fold

Q: And the tumor growth [4]?
A: significant antitumor effect

Q: What about the tumor growth [5] of the same molecule?
A: significant antitumor effects

Q: And the tumor growth [6]?
A: tumor outgrowth was not inhibited

Q: What about the tumor growth [7] of the same molecule?
A: tumor outgrowth was not inhibited

Q: What about the “CD45R-positive cells in A375 tumors” value ([8]; A375 (p53+/HLA.A2.1+) tumor sections) of the same molecule?
A: Complete tumor infiltration of large CD45R+ cells

Q: And the “CD45R+ cell infiltration” value ([8]; A375 tumors, 10 μg/dose, four days of daily treatment)?
A: 14.5 CD45R+ cells/field of view

Q: What about the “CD45R-positive cells in AsPC1 tumors” value ([8]; AsPC1 (p53-/HLA-A2.1-) tumor sections) of the same molecule?
A: no differences were observed between treatment groups

Q: What about the “cells bound with fusion protein infiltrating into tumors” value [9] of the same molecule?
A: 3.0 BF1+ cells/field of view

Q: And the “infiltration of CD45R+ cells” value [9]?
A: 10.3 CD45R+ cells/field of view

Q: And the “mice that developed tumors” value ([10]; 3 μg dose, 9 doses)?
A: all of the mice developed tumors

Q: And the average tumor size ([10]; 3 μg dose, 9 doses, vs PBS)?
A: significantly smaller than that of the PBS treated mice

Q: What about the “A375 tumor growth compared to PBS” value ([10]; 0.5 mg/kg i.v., four daily injections, 10-day rest, four more) of the same molecule?
A: potent antitumor activity

Q: What about the “mice that developed tumors” value ([10]; 0.5 mg/kg/dose, 9 doses) of the same molecule?
A: six of the eight

Q: What about the “tumor weight at the end of the study” value ([10]; 1.6 mg/kg and 0.5 mg/kg doses vs rhIL-2 0.4 mg/kg) of the same molecule?
A: significantly more effective at reducing tumor burden than the high dose of rhIL-2

Q: What about the “mice that developed tumors” value ([10]; 1.6 mg/kg i.v., 9 doses, tumors established three days) of the same molecule?
A: 50%

Q: What about the “mice that developed tumors” value ([10]; 1.6 mg/kg/dose, 9 doses) of the same molecule?
A: four of the eight

Q: What about the tumor growth ([10]; 0.5 or 0.2 mg/kg, four daily injections, 10-day rest, four more, compared with 0.125 mg/kg rhIL-2) of the same molecule?
A: significantly inhibited tumor growth

Q: What about the “tumor growth following two dosing cycles” value ([10]; 264scTCR/IL-2 0.5 mg/kg daily x4 per cycle, rhIL-2 0.4 mg/kg every 8 hrs for five days per cycle) of the same molecule?
A: inhibited tumor growth to a similar degree

Q: What about the “growth of well-established tumors” value ([10]; tumors grown to 75 or 200 mm^3, 9 doses i.v.) of the same molecule?
A: marked inhibition of tumor growth and partial to complete regression of tumors in most mice

Q: `O=P1(N(CCCl)CCCl)NCCCO1` (centres unmarked) [CTX, cyclophosphamide, reference compound] was tested. Which Median survival [11] did it give?
A: 52 days
